Literature values, collected in paper PMC8244136, “Integrin αvβ6-targeted MR molecular imaging of breast cancer in a xenograft mouse model” (Cancer Imaging, 2021).

Columns and labels:
[1] = From the text: (§1) Because of the significance of integrin αvβ6 in tumorigenesis and tumor progression, many pioneering experimental studies have focused on αvβ6-targeted ligands, including peptides and non-peptide inhibitors. More recently, a novel sub-nanomolar αvβ6-specific ligand, the nonapeptide cyclo [FRGDLAFp(NMe)K] (referred to as cFK-9) was identified, which is characterized by the RXDLXXL motif sequence.
αvβ5 = details: selectivity against other integrins
From the text: as §1

integrin αvβ6 = details: read-out: αvβ6 binding affinity IC50
From the text: as §1

α5β1 = details: selectivity against other integrins
From the text: as §1

αIIbβ3 = details: selectivity against other integrins
From the text: as §1

αvβ3 = details: selectivity against other integrins
From the text: as §1

cyclo [FRGDLAFp(NMe)K] (head to tail) [cFK-9, sub-nanomolar αvβ6-specific ligand, cyclic RGD nonapeptide with RXDLXXL motif]
stability in human plasma [1]: very stable
IC50 (αvβ5): > 1 µM
IC50 (integrin αvβ6): 0.00026 µM
IC50 (α5β1): 0.073 µM
IC50 (αIIbβ3): > 1 µM
IC50 (αvβ3): 0.632 µM
